From US20060264455A1 (priority 2005, published 2006)
Values joined by “and” are separate entries in the source; they are usually repeats but may differ in a detail not shown here. Equal values may be shown once. Read-outs that look alike come from different tables or passages of the source.

Columns and labels:
[1] = system: formalin-induced paw-licking; assay: Formalin test (paw licking/biting) in mice; assay type: in vivo; conditions: for Duration of Licking: Trial 1, one value per animal #01-08; for activity at 0.5 mg/kg / activity at 1 mg/kg: Mus musculus, ip, read-out: Area Under the Curve, % of Control
Experimental: The formalin test for antinociceptive activity is described in numerous publications, e.g., Hunskaar, S., O. B. Fasmer, and K. Hole, J. Neurosci. […] The formalin test is accepted as an art recognized model of persistent clinical pain.
Male Swiss Webster NIH mice (20-30 g; Harlan, San Diego, Calif.) were used in the experiments described herein. Food was withdrawn on the day of experiment. Mice were placed in Plexiglass jars for at least 1 hour to accommodate to the environment. Following the accommodation period, mice were weighed and given either a huperzine compound administered intraperitoneal (i.p.) or oral (p.o.), or the appropriate volume of vehicle (10% Tween-80). Fifteen minutes after the i.p. dosing, and 30 minutes after the p.o. dosing mice were injected with formalin (20 μL of 5% formaldehyde solution in saline) into the dorsal surface of the right hind paw. Mice were transferred to the Plexiglass jars and monitored for the amount of time spent licking or biting the injected paw. Periods of licking and biting were recorded in 5 minute intervals for 40 minutes after the formalin injection. All experiments were done in a blinded manner. The early phase (acute) of the formalin response is measured as licking/biting between 0-5 minutes, and the late phase (inflammatory) is measured from 10-40 minutes. Differences between vehicle and drug treated groups are analyzed by one-way analysis of variance (ANOVA). A P value<0.05 is considered significant.
Fifteen minutes after the i.p. dosing, mice were injected with formalin (20 μL of 5% formaldehyde solution in saline) into the dorsal surface of the right hind paw. Periods of licking and biting were recorded in 5 minute intervals for 40 minutes after the formalin injection as shown below in Tables 1 and 2. All experiments were done according to the art-recognized Anticonvulsant Screening Program of the NINDS at the University of Utah.
Duration of paw licking in the tables below is expressed in seconds.

[2] = system: hippocampal kindled seizures; assay: Rapid hippocampal kindling model, rat; assay type: in vivo; conditions: 1 mg/kg, i.p., time of test ¼-3 h
Experimental: Seizure testing was carried out as follows.

[3] = system: subcutaneous Metrazol (pentylenetetrazol) seizures; conditions: i.p.
Experimental: Male, 18-25 g CFI mice and 100-125 g Sprague-Dawley rats (Charles River Laboratories, Wilmington, Mass.) were used as the experimental animals. Animals were pretreated intraperitoneally (i.p.) with increasing doses of HupA and tested at various times after administration for protection against tonic extension (MES test), minimal clonic (s.c. PTZ test), limbic (6 Hz), or secondarily generalized (kindled rat) seizures. Seizure testing was carried out as follows. For the MES and 6 Hz tests, a drop of anesthetic/electrolyte solution (0.5% tetracaine hydrochloride in 0.9% saline) was applied to the eyes of each animal prior to placement of the corneal electrodes. […] The ability of the test substance to prevent seizures induced by 6 Hz corneal stimulation (32 mA, 3 sec duration) was assessed at various times after i.p. administration of 1 mg/kg HupA For assessment of hippocampal kindling, HupA (1 mg/kg, i.p.) was administered.

[4] = system: minimal motor impairment (ataxia, abnormal gait and stance); conditions: rat, in vivo
[5] = system: 6 Hz limbic seizures (corneal stimulation); conditions: for N/F, Time to Peak Effect: IP, 32 mA series; for COMMENT (observed effect): ip
Description: (§1) These three tests are highly predictive of efficacy against human generalized tonic-clonic (MES), generalized myoclonic (sc PTZ), and refractory limbic (6 Hz) seizures, respectively.
(§2) Male, 18-25 g CFI mice and 100-125 g Sprague-Dawley rats (Charles River Laboratories, Wilmington, Mass.) were used as the experimental animals. Animals were pretreated intraperitoneally (i.p.) with increasing doses of HupA and tested at various times after administration for protection against tonic extension (MES test), minimal clonic (s.c. PTZ test), limbic (6 Hz), or secondarily generalized (kindled rat) seizures. Seizure testing was carried out as follows. For the MES and 6 Hz tests, a drop of anesthetic/electrolyte solution (0.5% tetracaine hydrochloride in 0.9% saline) was applied to the eyes of each animal prior to placement of the corneal electrodes.

patients = conditions: human, in vivo; cited from earlier work
[6] = system: 6 Hz limbic seizures (corneal stimulation); assay: animal or person; conditions: Mus musculus, ip
Description: as §1, §2

[7] = system: maximal electroshock (MES) tonic extension seizures; assay: Maximal Electroshock (MES) model, mice; conditions: for Mice protected against seizures, MES: 3 mg/kg; for N/F, MES time course: mice, I.P., 5 mg/kg
Description: (§3) The maximal electroshock (MES) model is an art recognized test, useful to investigate the efficacy of therapeutic agents against grand mal seizures. Maximal seizures were induced by the application of electrical current to the brain via corneal electrodes. The stimulus parameters for mice were 50 mA in a pulse of 60 Hz for 200 ms.
(§4) Male, 18-25 g CFI mice and 100-125 g Sprague-Dawley rats (Charles River Laboratories, Wilmington, Mass.) were used as the experimental animals. Animals were pretreated intraperitoneally (i.p.) with increasing doses of HupA and tested at various times after administration for protection against tonic extension (MES test), minimal clonic (s.c. PTZ test), limbic (6 Hz), or secondarily generalized (kindled rat) seizures. Seizure testing was carried out as follows. For the MES and 6 Hz tests, a drop of anesthetic/electrolyte solution (0.5% tetracaine hydrochloride in 0.9% saline) was applied to the eyes of each animal prior to placement of the corneal electrodes. […] Animals not displaying secondarily generalize seizures were considered protected.

[8] = system: maximal electroshock (MES) tonic extension seizures; assay: Maximal Electroshock (MES) model, rats; conditions: oral, 1 mg/kg
Description: as §3, §4

[9] = system: minimal motor impairment (ataxia, abnormal gait and stance); assay: Toxicity (TOX) / minimal motor impairment, rats; conditions: oral, 1 mg/kg
[10] = system: subcutaneous Metrazol (pentylenetetrazol) seizures; assay: Subcutaneous Metrazol (SCMET / scPTZ) model, rats
Description: The Subcutaneous Metrazole (SCMET) model is also an art-recognized test for therapeutic agents for epilepsy, and in particular, is useful for investigating petite mal seizures.

[11] = 0.5 mg/kg i.p., Inflammatory phase
[12] = 1 mg/kg i.p., Inflammatory phase

C/C=C1\[C@H]2C=C(C)C[C@]1(N)c1ccc(=O)[nH]c1C2 [Huperzine A]
Time spent licking ([1]; 0.5 mg/kg i.p.): impressive reduction in the time spent licking
Duration of Licking ([1]; 0.5 mg/kg i.p., 0 min): 10.00 sec and 0.00 sec and 3.00 sec and 1.00 sec (4×) and 2.00 sec
Duration of Licking ([1]; 0.5 mg/kg i.p., 5 min): 0.00 s
Duration of Licking ([1]; 0.5 mg/kg i.p., 10 min): 0.00 s
Duration of Licking ([1]; 0.5 mg/kg i.p., 15 min): 0.00 s
Duration of Licking ([1]; 0.5 mg/kg i.p., 20 min): 0.00 s
Duration of Licking ([1]; 0.5 mg/kg i.p., 25 min): 0.00 s
Duration of Licking ([1]; 0.5 mg/kg i.p., 30 min): 0.00 s
Duration of Licking ([1]; 0.5 mg/kg i.p., 35 min): 0.00 s
Duration of Licking ([1]; 0.5 mg/kg i.p., 40 min): 0.00 s
Area Under the Curve, Drug Tested ([1]; 0.5 mg/kg i.p., Acute phase): 7.3
Area Under the Curve, Drug Tested [1, 11]: 0.0
Inhibition of phase 1 (acute) and phase 2 (inflammatory) pain response ([1]; 1 mg/kg i.p., mice): complete inhibition
Area Under the Curve, Drug Treated ([1]; 1 mg/kg i.p., Acute phase): 0.0
Area Under the Curve, Drug Treated [1, 12]: 0.0
activity at 0.5 mg/kg ([1]; 0.5 mg/kg i.p., Acute phase): 2.8%
activity at 0.5 mg/kg [1, 11]: 0%
activity at 1 mg/kg ([1]; 1 mg/kg i.p., Acute phase): 0%
activity at 1 mg/kg [1, 12]: 0%
Maximum Protection Observed [2]: 0%
N/F (mice showing an effect / mice tested), SCMET ([3]; 1 mg/kg SOL, 0.5 h): 3/5
N/F (mice showing an effect / mice tested), SCMET ([3]; 1 mg/kg SOL, 4.0 h): 0/1
N/F (mice showing an effect / mice tested), SCMET ([3]; 3 mg/kg SUS, 0.5 h): 1/1
N/F (mice showing an effect / mice tested), SCMET ([3]; 3 mg/kg SUS, 4.0 h): 0/1
N/F (mice showing an effect / mice tested), SCMET ([3]; 10 mg/kg SUS, 0.5 h): 0/1
N/F (mice showing an effect / mice tested), SCMET ([3]; 10 mg/kg SUS, 4.0 h): 1/1
Maximum Protection Observed ([3]; scPTZ, Mouse, 1 mg/kg, time of test 2 h): 25%
Behavioral impairment [4]: marked motor impairment
Protection in the mouse 6 Hz test (FIG. 1) ([5]; 0.8 mg/kg): time-dependent protection
Maximum Protection Observed ([5]; 6 Hz, Mouse, 0.83 mg/kg, i.p., time of test 1 h): 100%
N/F, Time to Peak Effect ([5]; 0.83 mg/kg, 0.25 h): 1/4
N/F, Time to Peak Effect ([5]; 0.83 mg/kg, 0.5 h): 1/4
N/F, Time to Peak Effect ([5]; 0.83 mg/kg, 1.0 h): 4/4
N/F, Time to Peak Effect ([5]; 0.83 mg/kg, 2.0 h): 2/4
N/F, Time to Peak Effect ([5]; 0.83 mg/kg, 4.0 h): 0/4
Protection against 6 Hz seizures (FIG. 2) ([5]; mouse, in vivo): dose-dependent protection
COMMENT (observed effect) ([5]; mouse, in vivo, 0.18 mg/kg): Minimal motor impairment
COMMENT (observed effect) ([5]; mouse, in vivo, 0.2 mg/kg): Tremors
COMMENT (observed effect) ([5]; mouse, in vivo, 0.35 mg/kg): Minimal motor impairment
Adverse effects in patients (patients): noted infrequently and were mainly cholinergic
ED50 ([6]; 1 h, 22 mA): 0.279 mg/kg
ED50 ([6]; 1 h, 32 mA): 0.339 mg/kg
ED50 ([6]; 22 mA): 0.28 mg/kg
ED50 ([6]; 32 mA): 0.34 mg/kg
ED50 ([6]; 44 mA): 0.78 mg/kg
Protection in the mouse MES test (FIG. 1) ([7]; 1 mg/kg): time-dependent protection
Mice protected against seizures, MES ([7]; 30 minutes post administration): 33%
Mice protected against seizures, MES ([7]; four hours post administration): 100%
Maximum Protection Observed ([7]; MES, Mouse, 1 mg/kg, i.p., time of test 1 & 2 h): 75%
N/F (mice showing an effect / mice tested), MES ([7]; i.p., 0.1 mg/kg SOL, 4.0 h): 0/4
N/F (mice showing an effect / mice tested), MES ([7]; i.p., 0.3 mg/kg SOL, 4.0 h): 0/4
N/F (mice showing an effect / mice tested), MES ([7]; i.p., 1 mg/kg SUS, 0.5 h): 0/1
N/F (mice showing an effect / mice tested), MES ([7]; i.p., 1 mg/kg SUS, 4.0 h): 1/1
N/F (mice showing an effect / mice tested), MES ([7]; i.p., 3 mg/kg SUS, 0.5 h): 1/3
N/F (mice showing an effect / mice tested), MES ([7]; i.p., 3 mg/kg SUS, 4.0 h): 3/3
N/F (mice showing an effect / mice tested), MES ([7]; i.p., 10 mg/kg SUS, 0.5 h): 1/1
N/F (mice showing an effect / mice tested), MES ([7]; i.p., 10 mg/kg SUS, 4.0 h): 1/1
N/F, MES time course ([7]; 0.5 h): 1/4
N/F, MES time course ([7]; 1.0 h): 3/4
N/F, MES time course ([7]; 2.0 h): 3/4
N/F, MES time course ([7]; 4.0 h): 3/4
N/F, MES time course ([7]; 6.0 h): 4/4
N/F, MES time course ([8]; 0.25 h): 0/4
N/F, MES time course ([8]; 0.5 h): 0/4
N/F, MES time course ([8]; 1.0 h): 1/4
N/F, MES time course ([8]; 2.0 h): 1/4
N/F, MES time course ([8]; 4.0 h): 0/4
N/F, MES time course ([8]; 6.0 h): 0/4
Toxicity [9]: no toxicity in any of the animals
Time of peak anticonvulsant activity ([10]; after p.o. administration of 1 mg/kg, test not given): one-hour
Maximum protection ([10]; p.o., doses tested 1, 2 and 4 mg/kg, at a non-toxic dose of 1 mg/kg, test not given): 62.5%
N/F, SCMET time course ([10]; rats, oral, 1 mg/kg, 0.25 h): 0/4
N/F, SCMET time course ([10]; rats, oral, 1 mg/kg, 0.5 h): 2/4
N/F, SCMET time course ([10]; rats, oral, 1 mg/kg, 1.0 h): 2/4
N/F, SCMET time course ([10]; rats, oral, 1 mg/kg, 2.0 h): 1/4
N/F, SCMET time course ([10]; rats, oral, 1 mg/kg, 4.0 h): 1/4
N/F, SCMET time course ([10]; rats, oral, 1 mg/kg, 6.0 h): 0/4
Time of peak activity post administration ([10]; rats, oral, 1 mg/kg, MES and SCMET models): between 30 minutes and two hours
Maximum Protection Observed ([10]; scPTZ, Rat, 2 mg/kg, p.o., time of test ½ h): 62.5%
